# In the NIST ThermoML archive (doi:10.1016/j.fluid.2014.10.004):
# ± gives the expanded uncertainty stated by the source.
# Columns and labels:
# [1] = refractive index (Na D-line) (dimensionless); conditions: 101.33 kPa, Liquid, Standard Abbe refractometry
# [2] = 101.3 kPa, Liquid, Sing-around technique in a fixed-path interferometer
# [3] = xn = mol fraction of the nth substance listed; conditions: 101.3 kPa, Liquid, Sing-around technique in a fixed-path interferometer
# [4] = refractive index (Na D-line) (dimensionless); xn = mol fraction of the nth substance listed; conditions: 101.3 kPa, Liquid, Standard Abbe refractometry
smiles,measurement,setting,value
"CC(Cl)(Cl)Cl [1,1,1-trichloroethane]",refractive index,[1]; 298.15 K,1.43492 ± 0.00037
same,refractive index,[1]; 308.15 K,1.42908 ± 0.00037
same,refractive index,[1]; 318.15 K,1.42311 ± 0.00037
same,speed of sound,[2]; 298.15 K,962.94 ± 1.5 m/s
same,speed of sound,[2]; 308.15 K,928.68 ± 1.5 m/s
same,speed of sound,[2]; 318.15 K,894.71 ± 1.5 m/s
"ClC(Cl)C(Cl)Cl [1,1,2,2-tetrachloroethane]",refractive index,[1]; 298.15 K,1.49174 ± 0.00051
same,refractive index,[1]; 308.15 K,1.48654 ± 0.00051
same,refractive index,[1]; 318.15 K,1.48137 ± 0.00051
same,speed of sound,[2]; 298.15 K,1150.6 ± 2.3 m/s
same,speed of sound,[2]; 308.15 K,1118.7 ± 2.3 m/s
same,speed of sound,[2]; 318.15 K,1087 ± 2.3 m/s
"ClCCCl [1,2-dichloroethane]",refractive index,[1]; 298.15 K,1.44206 ± 0.00031
same,refractive index,[1]; 308.15 K,1.43661 ± 0.00031
same,refractive index,[1]; 318.15 K,1.43109 ± 0.00031
same,speed of sound,[2]; 298.15 K,1194.4 ± 1.2 m/s
same,speed of sound,[2]; 308.15 K,1156.1 ± 1.2 m/s
same,speed of sound,[2]; 318.15 K,1117.8 ± 1.1 m/s
"ClCCCCl [1,3-dichloropropane]",refractive index,[1]; 298.15 K,1.44617 ± 0.00032
same,refractive index,[1]; 308.15 K,1.44123 ± 0.00032
same,refractive index,[1]; 318.15 K,1.43614 ± 0.00032
same,speed of sound,[2]; 298.15 K,1236.5 ± 1.2 m/s
same,speed of sound,[2]; 308.15 K,1199.7 ± 1.2 m/s
same,speed of sound,[2]; 318.15 K,1163.2 ± 1.2 m/s
"ClCCCCCl [1,4-dichlorobutane]",refractive index,[1]; 298.15 K,1.45224 ± 0.00031
same,refractive index,[1]; 308.15 K,1.44756 ± 0.00031
same,refractive index,[1]; 318.15 K,1.44279 ± 0.00031
same,speed of sound,[2]; 298.15 K,1286.6 ± 1.2 m/s
same,speed of sound,[2]; 308.15 K,1251 ± 1.2 m/s
same,speed of sound,[2]; 318.15 K,1215.7 ± 1.2 m/s
CCCCCl [1-chlorobutane],refractive index,[1]; 298.15 K,1.39953 ± 0.00032
same,refractive index,[1]; 308.15 K,1.39413 ± 0.00032
same,refractive index,[1]; 318.15 K,1.38851 ± 0.00032
same,speed of sound,[2]; 298.15 K,1119 ± 1.2 m/s
same,speed of sound,[2]; 308.15 K,1078 ± 1.2 m/s
same,speed of sound,[2]; 318.15 K,1037.3 ± 1.2 m/s
CCCCCCl [1-chloropentane],refractive index,[1]; 298.15 K,1.41015 ± 0.00031
same,refractive index,[1]; 308.15 K,1.40501 ± 0.00031
same,refractive index,[1]; 318.15 K,1.39984 ± 0.00031
same,speed of sound,[2]; 298.15 K,1164.2 ± 1.2 m/s
same,speed of sound,[2]; 308.15 K,1124.9 ± 1.2 m/s
same,speed of sound,[2]; 318.15 K,1085.8 ± 1.1 m/s
C[N+](=O)[O-] [nitromethane],refractive index,[1]; 298.15 K,1.37951 ± 0.0004 [middle of 8 runs]
same,refractive index,[1]; 308.15 K,1.37473 ± 0.0004 [middle of 7 runs]
same,refractive index,[1]; 318.15 K,1.37001 ± 0.0004 [middle of 7 runs]
same,speed of sound,[2]; 298.15 K,1321.3 ± 1.8 m/s [middle of 9 runs]
same,speed of sound,[2]; 308.15 K,1281.9 ± 1.8 m/s [middle of 7 runs]
same,speed of sound,[2]; 318.15 K,1242.5 ± 1.7 m/s [middle of 8 runs]
C[N+](=O)[O-] [nitromethane] + CCCCCl,speed of sound,"[3]; 298.15 K, x2 = 0",1321.5 ± 1.8 m/s
same,speed of sound,"[3]; 298.15 K, x2 = 0.1107",1273.7 ± 1.7 m/s
same,speed of sound,"[3]; 298.15 K, x2 = 0.2174",1236.5 ± 1.6 m/s
same,speed of sound,"[3]; 298.15 K, x2 = 0.3236",1207.6 ± 1.5 m/s
same,speed of sound,"[3]; 298.15 K, x2 = 0.3932",1191.9 ± 1.5 m/s
same,speed of sound,"[3]; 298.15 K, x2 = 0.4856",1174.5 ± 1.4 m/s
same,speed of sound,"[3]; 298.15 K, x2 = 0.5569",1163.5 ± 1.4 m/s
same,speed of sound,"[3]; 298.15 K, x2 = 0.6626",1149.3 ± 1.3 m/s
same,speed of sound,"[3]; 298.15 K, x2 = 0.7722",1137.6 ± 1.3 m/s
same,speed of sound,"[3]; 298.15 K, x2 = 0.8646",1129.1 ± 1.2 m/s
same,speed of sound,"[3]; 308.15 K, x2 = 0",1282.1 ± 1.8 m/s
same,speed of sound,"[3]; 308.15 K, x2 = 0.1107",1234.3 ± 1.7 m/s
same,speed of sound,"[3]; 308.15 K, x2 = 0.2174",1197.1 ± 1.6 m/s
same,speed of sound,"[3]; 308.15 K, x2 = 0.3236",1168.1 ± 1.5 m/s
same,speed of sound,"[3]; 308.15 K, x2 = 0.3932",1152.3 ± 1.5 m/s
same,speed of sound,"[3]; 308.15 K, x2 = 0.4856",1134.7 ± 1.4 m/s
same,speed of sound,"[3]; 308.15 K, x2 = 0.5569",1123.2 ± 1.4 m/s
same,speed of sound,"[3]; 308.15 K, x2 = 0.6626",1109.1 ± 1.3 m/s
same,speed of sound,"[3]; 308.15 K, x2 = 0.7722",1096.8 ± 1.3 m/s
same,speed of sound,"[3]; 308.15 K, x2 = 0.8646",1088.3 ± 1.2 m/s
same,speed of sound,"[3]; 318.15 K, x2 = 0",1242.8 ± 1.7 m/s
same,speed of sound,"[3]; 318.15 K, x2 = 0.1107",1195 ± 1.7 m/s
same,speed of sound,"[3]; 318.15 K, x2 = 0.2174",1157.8 ± 1.6 m/s
same,speed of sound,"[3]; 318.15 K, x2 = 0.3236",1128.9 ± 1.5 m/s
same,speed of sound,"[3]; 318.15 K, x2 = 0.3932",1112.8 ± 1.5 m/s
same,speed of sound,"[3]; 318.15 K, x2 = 0.4856",1094.9 ± 1.4 m/s
same,speed of sound,"[3]; 318.15 K, x2 = 0.5569",1083.1 ± 1.4 m/s
same,speed of sound,"[3]; 318.15 K, x2 = 0.6626",1068.9 ± 1.3 m/s
same,speed of sound,"[3]; 318.15 K, x2 = 0.7722",1056.6 ± 1.3 m/s
same,speed of sound,"[3]; 318.15 K, x2 = 0.8646",1047.8 ± 1.2 m/s
same,refractive index,"[4]; 298.15 K, x2 = 0",1.37917 ± 0.0004
same,refractive index,"[4]; 298.15 K, x2 = 0.1107",1.38191 ± 0.00039
same,refractive index,"[4]; 298.15 K, x2 = 0.2174",1.38445 ± 0.00038
same,refractive index,"[4]; 298.15 K, x2 = 0.3236",1.38691 ± 0.00037
same,refractive index,"[4]; 298.15 K, x2 = 0.3932",1.38839 ± 0.00036
same,refractive index,"[4]; 298.15 K, x2 = 0.4856",1.39032 ± 0.00035
same,refractive index,"[4]; 298.15 K, x2 = 0.5569",1.39177 ± 0.00035
same,refractive index,"[4]; 298.15 K, x2 = 0.6626",1.39383 ± 0.00034
same,refractive index,"[4]; 298.15 K, x2 = 0.7722",1.39577 ± 0.00033
same,refractive index,"[4]; 298.15 K, x2 = 0.8646",1.39729 ± 0.00033
same,refractive index,"[4]; 308.15 K, x2 = 0",1.37447 ± 0.0004
same,refractive index,"[4]; 308.15 K, x2 = 0.1107",1.37698 ± 0.00039
same,refractive index,"[4]; 308.15 K, x2 = 0.2174",1.37936 ± 0.00038
same,refractive index,"[4]; 308.15 K, x2 = 0.3236",1.38174 ± 0.00037
same,refractive index,"[4]; 308.15 K, x2 = 0.3932",1.38321 ± 0.00036
same,refractive index,"[4]; 308.15 K, x2 = 0.4856",1.38511 ± 0.00035
same,refractive index,"[4]; 308.15 K, x2 = 0.5569",1.38656 ± 0.00035
same,refractive index,"[4]; 308.15 K, x2 = 0.6626",1.38853 ± 0.00034
same,refractive index,"[4]; 308.15 K, x2 = 0.7722",1.39045 ± 0.00033
same,refractive index,"[4]; 308.15 K, x2 = 0.8646",1.39196 ± 0.00033
same,refractive index,"[4]; 318.15 K, x2 = 0",1.3695 ± 0.0004
same,refractive index,"[4]; 318.15 K, x2 = 0.1107",1.3718 ± 0.0004
same,refractive index,"[4]; 318.15 K, x2 = 0.2174",1.37406 ± 0.00038
same,refractive index,"[4]; 318.15 K, x2 = 0.3236",1.37632 ± 0.00037
same,refractive index,"[4]; 318.15 K, x2 = 0.3932",1.37772 ± 0.00036
same,refractive index,"[4]; 318.15 K, x2 = 0.4856",1.37958 ± 0.00035
same,refractive index,"[4]; 318.15 K, x2 = 0.5569",1.38104 ± 0.00035
same,refractive index,"[4]; 318.15 K, x2 = 0.6626",1.38299 ± 0.00034
same,refractive index,"[4]; 318.15 K, x2 = 0.7722",1.3848 ± 0.0003
same,refractive index,"[4]; 318.15 K, x2 = 0.8646",1.38635 ± 0.00033
C[N+](=O)[O-] [nitromethane] + ClC(Cl)C(Cl)Cl,speed of sound,"[3]; 298.15 K, x2 = 0",1321.2 ± 1.8 m/s
same,speed of sound,"[3]; 308.15 K, x2 = 0",1281.8 ± 1.8 m/s
same,speed of sound,"[3]; 318.15 K, x2 = 0",1242.5 ± 1.7 m/s
same,refractive index,"[4]; 298.15 K, x2 = 0",1.37946 ± 0.0004
same,refractive index,"[4]; 308.15 K, x2 = 0",1.37472 ± 0.0004
same,refractive index,"[4]; 318.15 K, x2 = 0",1.36996 ± 0.0004
